# Test results: patent US4176185A, “Spiro-quinolylhydantoins” (Pfizer Inc., priority 1979, dated 1979)
# Legend:
# [1] = tested on: sorbitol accumulation in the sciatic nerve; assay: inhibition of sorbitol accumulation in the sciatic nerve of streptozotocinized (diabetic) rats; format: in vivo, rat; settings: measured 27 h after induction of diabetes, vs untreated
# Excerpt: (§1) The activity of the compounds of the present invention as agents for the control of chronic diabetic complications may be determined by a number of standard biological or pharmacological tests. Suitable tests include (1) measuring their ability to inhibit the enzyme activity of isolated aldose reductase; (2) measuring their ability to reduce or inhibit sorbitol accumulation in the sciatic nerve of acutely streptozotocinized (i.e. diabetic) rats; (3) measuring their ability to reverse already-elevated sorbitol levels in the sciatic nerve and lens of chronic streptozotocin-induced diabetic rats; (4) measuring their ability to prevent or inhibit galactitol formation in the lens of acutely galactosemic rats; and (5) measuring their ability to delay cataract formation and reduce the severity of lens opacities in chronic galactosemic rats.
# The compounds of Examples 3 and 6 were tested for their ability to reduce or inhibit sorbitol accumulation in the sciatic nerve of streptozotocinized (i.e. diabetic) rats by the procedure essentially described in U.S. Pat. No. 3,821,383. In the present study, the amount of sorbitol accumulation in the sciatic nerves was measured 27 hours after induction of diabetes. The compounds were administered orally at the dose levels indicated at 4, 8 and 24 hours following the administration of streptozotocin. […]
# [2] = tested on: aldose reductase; assay: inhibition of aldose reductase enzyme activity; format: biochemical; settings: partially purified aldose reductase from calf lens
# Excerpt: as §1
# The compounds of Examples 3 and 6 were tested for their ability to reduce or inhibit aldose reductase enzyme activity, following the procedure described in U.S. Pat. No. 3,821,383 and based on the procedure of Hayman et. al., Journal of Biological Chemistry, 240, 877 (1965). The substrate employed was partially purified aldose reductase enzyme obtained from calf lens. The results obtained with each compound at a concentration of 10^-4 M are expressed as percent inhibition of enzyme activity.
SMILES,"% Inhibition (sorbitol accumulation in sciatic nerve) ([1]; 1.5 mg/kg oral at 4, 8 and 24 h after streptozotocin) [%]",% Inhibition at 10^-4 M (aldose reductase enzyme activity) [2] [%],"% Inhibition (sorbitol accumulation in sciatic nerve) ([1]; 10 mg/kg oral at 4, 8 and 24 h after streptozotocin) [%]"
O=C1NC(=O)C2(CCOc3c2ccc2cccnc32)N1 (stereo not shown) [Example 3],27,75,–
O=C1NC(=O)C2(CCOc3c2ccc2ncccc32)N1 (stereo not shown) [Example 6],–,94,92
